Measurements taken from patent US7303881B2, “Antigen delivery compositions and methods of use” (priority 2004, dated 2007).

Tests used:
DC 2.4 cells = assay: Expression of CD80 on DC 2.4 cells, cationic lipid head group and chain length; assay type: cell-based
Source text: Both hydrophilic head and the lipophilic tail of the lipids have significant effect on this ability. […] The effect of the hydrocarbon tail region of the lipids on the DC cell stimulation also was systematically investigated (FIG. 8).

[1] = test system: EL4 cells pulsed with E7 peptide; assay: Chromium release CTL assay after LPD/E7 vaccination; assay type: in vivo, C57BL/6 mice; conditions: 20 μg E7 peptide, IV and SC, days 0 and 5
Description: For comparison, mice were injected with 20 μg E7 peptide in PBS or encapsulated in SL liposomes. Five days after the final vaccination, splenocytes were collected, and used as effector cells in a chromium release assay. Consistent with previous reports, antigen containing SL liposomes induced significant levels of CTL activity (61% specific lysis) following SC injection only.
Cytolytic lymphocyte activity was measured using standard ^51Cr-release assays. Splenocytes were collected and cultured in RPMI supplemented with 10% FBS, 50 U/ml penicillin/streptomycin, 2 mM L-glutamine, 1 mM sodium pyruvate, 2 mM nonessential amino acids, 40 U/ml IL2, and 200 ng/ml MHC class I restricted E7 peptide for 4 days. Effector cells were plated into 96-well plates at various effector-to-target (E:T) cell ratios. Targets used were either EL4 cells pulsed with E7 peptide or non-pulsed EL4 cells. Targets were labeled with 200 μCi ^51Cr (NEN Life Sciences, Boston Mass.) for 18 h at 37° C. Before mixing with effectors, the targets were washed two times with medium, and resuspended at 2×10^5 cells/ml. […] Specific lysis was calculated using the following equation: % specific lysis=(experimental release−spontaneous release)/(maximum release−spontaneous release)×100. […]

TC-1 cells = assay: Metastatic tumor model (i.p. TC-1 cells) after vaccination, survival and TC-1 rechallenge; assay type: in vivo, mice; conditions: 10 μg E7 peptide in PBS days 0 and 5; 1×10^6 TC-1 cells day 10
tumor = assay: In vivo tumor therapy with LPD/E7 and formulations of LPD components; parameters: species or system mice; conditions: 20 days after treatment; tumor injected 6 days before onset of treatment
Source text: FIG. 9. Tumor growth kinetics on mice treated with LPD/E7 and other different formulations.
It is speculated that by condensing DNA, protamine helped to bring DNA inside the liposomes. E7 peptide was thought to bind to DNA via electrostatic interaction (Dileo et al., 2003). […] On the other hand, E7might only be loosely bound in the LD/E7 particles.

Compound | Stimulation of CD 80 expression (DC 2.4 cells) | other results
CCCCCCCCCCCCCC(=O)OCC(COP(=O)(OCC)OCC[N+](C)(C)C)OC(=O)CCCCCCCCCCCCC (stereo not drawn) [DMEPC-14:0, 1,2-dimyristoyl-sn-glycero-3-ethylphosphocholine] | more potent | –
CCCCCCCCCCCCCCCC(=O)OCC(C[N+](C)(C)C)OC(=O)CCCCCCCCCCCCCCC (stereo not drawn) [DPTAP-16:0, 1,2-palmitoyl-3-trimethylammonium propane] | much lower expression of CD80 | –
CCCCCCCCCCCCCCCCCC(=O)OCC(C[N+](C)(C)C)OC(=O)CCCCCCCCCCCCCCCCC (stereo not drawn) [DSTAP-18:0, 1,2-distearoyl-3-trimethylammonium propane] | much lower expression of CD80 | –
CCCCCCCCCCCC(=O)OC[C@H](COP(=O)(OCC)OCC[N+](C)(C)C)OC(=O)CCCCCCCCCCC (stereo partly drawn) [DLEPC-12:0, 1,2-dilauroyl-sn-glycero-3-ethylphosphocholine] | more potent | –
CCCCCCCC/C=C\CCCCCCCC(=O)OC[C@@H](COP(=O)(OCC)OCC[N+](C)(C)C)OC(=O)CCCCCCC/C=C\CCCCCCCC (stereo partly drawn) [DOEPC-18:1, 1,2-dioleoyl-sn-glycero-3-ethylphosphocholine] | more potent | –
CCCCCCCCCCCCOS(=O)(=O)[O-].[Na+] [SDS, sodium dodecyl sulfate] | could not activate | –
E7 peptide: MHC class I restricted peptide from the HPV 16 E7 protein (aa 49 to 57, RAHYNIVTF), given in PBS | – | CTL activity [1]: no CTL induction; mice surviving beyond 20 days after TC-1 cell injection (TC-1 cells): 20%; Tumor growth after treatment (tumor): kept growing rapidly
